Like-named read-outs stand apart in the source and are kept apart here.
Target: LC3B (Homo sapiens, UniProt Q9GZQ8)
Conditions: for CSP: LC3B:ligand molar ratio 1:2; for 3D Mapping code: molar ratio 1:2

O=C1Nc2ccc(I)cc2C1=Cc1cc(Br)c(O)c(Br)c1 [compound 4]
CSP (LC3B residue M60): 0.024 ppm
3D Mapping code (LC3B residue M60): Light green (intermediate (SD < CSP <2xSD))
CSP (LC3B residue M111): 0.018 ppm
3D Mapping code (LC3B residue M111): Light green (intermediate (SD < CSP <2xSD))
CSP (LC3B residue N59): 0.072 ppm
3D Mapping code (LC3B residue N59): Orange (strong (2xSD <CSP))
CSP (LC3B residue N74): 0.002 ppm
CSP (LC3B residue N76): 0.00173 ppm
3D Mapping code (LC3B residue N84): Light green (intermediate (SD < CSP <2xSD))
CSP (LC3B residue P02, estimated): 0.002 ppm
CSP (LC3B residue P28, estimated): 0.016 ppm
3D Mapping code (LC3B residue P28, CSP estimated): Light green (intermediate (SD < CSP <2xSD))
CSP (LC3B residue P32, estimated): 0.024 ppm
3D Mapping code (LC3B residue P32, CSP estimated): Light green (intermediate (SD < CSP <2xSD))
CSP (LC3B residue P45, estimated): 0.005 ppm
CSP (LC3B residue P55, estimated): 0.025 ppm
3D Mapping code (LC3B residue P55, CSP estimated): Light green (intermediate (SD < CSP <2xSD))
CSP (LC3B residue Q09): 0.000424 ppm
CSP (LC3B residue Q15): 0.00358 ppm
CSP (LC3B residue Q26): 0.017 ppm
3D Mapping code (LC3B residue Q26): Light green (intermediate (SD < CSP <2xSD))
CSP (LC3B residue Q43): 0.00371 ppm
CSP (LC3B residue Q72): 0.009 ppm
CSP (LC3B residue Q77): 0.005 ppm
CSP (LC3B residue Q116): 0.00122 ppm
CSP (LC3B residue R10): 0.005 ppm
CSP (LC3B residue R11): 0.003 ppm
CSP (LC3B residue R16): 0.013 ppm
CSP (LC3B residue R21): 0.026 ppm
3D Mapping code (LC3B residue R21): Light green (intermediate (SD < CSP <2xSD))
CSP (LC3B residue R24): 0.014 ppm
CSP (LC3B residue R37): 0.016 ppm
CSP (LC3B residue R68): 0.032 ppm
3D Mapping code (LC3B residue R68): Orange (strong (2xSD <CSP))
CSP (LC3B residue R69): 0.020 ppm
3D Mapping code (LC3B residue R69): Light green (intermediate (SD < CSP <2xSD))
CSP (LC3B residue R70): 0.032 ppm
3D Mapping code (LC3B residue R70): Orange (strong (2xSD <CSP))
CSP (LC3B residue S03, estimated): 0.002 ppm
CSP (LC3B residue S61): 0.017 ppm
3D Mapping code (LC3B residue S61): Light green (intermediate (SD < CSP <2xSD))
3D Mapping code (LC3B residue S87): Orange (strong (2xSD <CSP))
3D Mapping code (LC3B residue S90): Orange (strong (2xSD <CSP))
3D Mapping code (LC3B residue S92): Orange (strong (2xSD <CSP))
CSP (LC3B residue S96): 0.039 ppm
3D Mapping code (LC3B residue S96): Orange (strong (2xSD <CSP))
CSP (LC3B residue S101): 0.011 ppm
CSP (LC3B residue S115): 0.008 ppm
CSP (LC3B residue T06): 0.00323 ppm
CSP (LC3B residue T12): 0.00666 ppm
CSP (LC3B residue T29, estimated): 0.016 ppm
3D Mapping code (LC3B residue T29, CSP estimated): Light green (intermediate (SD < CSP <2xSD))
CSP (LC3B residue T50): 0.022 ppm
3D Mapping code (LC3B residue T50): Light green (intermediate (SD < CSP <2xSD))
3D Mapping code (LC3B residue T93): Orange (strong (2xSD <CSP))
CSP (LC3B residue T118): 0.005 ppm
CSP (LC3B residue V17): 0.009 ppm
CSP (LC3B residue V20): 0.010 ppm
CSP (LC3B residue V33): 0.029 ppm
3D Mapping code (LC3B residue V33): Light green (intermediate (SD < CSP <2xSD))
CSP (LC3B residue V46): 0.008 ppm
CSP (LC3B residue V54): 0.049 ppm
3D Mapping code (LC3B residue V54): Orange (strong (2xSD <CSP))
CSP (LC3B residue V58): 0.034 ppm
3D Mapping code (LC3B residue V58): Orange (strong (2xSD <CSP))
3D Mapping code (LC3B residue V83): Orange (strong (2xSD <CSP))
3D Mapping code (LC3B residue V89): Light green (intermediate (SD < CSP <2xSD))
3D Mapping code (LC3B residue V91, CSP estimated): Orange (strong (2xSD <CSP))
CSP (LC3B residue V98): 0.013 ppm
CSP (LC3B residue V112): 0.027 ppm
3D Mapping code (LC3B residue V112): Light green (intermediate (SD < CSP <2xSD))
CSP (LC3B residue Y38): 0.00356 ppm
CSP (LC3B residue Y99): 0.00251 ppm
CSP (LC3B residue Y110): 0.037 ppm
3D Mapping code (LC3B residue Y110): Orange (strong (2xSD <CSP))
CSP (LC3B residue Y113): 0.013 ppm
CSP induced (N59 HN resonance, molar ratio 10O5:LC3B 1): 0.03127
CSP induced (N59 HN resonance, molar ratio 10O5:LC3B 2): 0.08027
CSP induced (N59 HN resonance, molar ratio 10O5:LC3B 8): 0.1884
CSP induced (S90 HN resonance, molar ratio 10O5:LC3B 1): 0.01709
CSP induced (S90 HN resonance, molar ratio 10O5:LC3B 2): 0.04125
CSP induced (S90 HN resonance, molar ratio 10O5:LC3B 8): 0.08089
CSP induced (Y110 HN resonance, molar ratio 10O5:LC3B 1): 0.0222
CSP induced (Y110 HN resonance, molar ratio 10O5:LC3B 2): 0.03845
CSP induced (Y110 HN resonance, molar ratio 10O5:LC3B 8): 0.0862

Source: PMC11589570, “Critical assessment of LC3/GABARAP ligands used for degrader development and ligandability of LC3/GABARAP binding pockets” (Nature Communications, 2024)
